Data as given in patent US4477458A, “Thiazolidine derivatives and their mucolytic compositions and methods” (Camillo Corvi S.p.A., priority 1981, dated 1984).
Structures can show the parent of a compound that is named as a salt.

Key:
[1] = tested on: mucus production of rabbit; assay: Activity on mucus production of rabbit (method of R. Scuri and Coll.); type: in vivo; conditions: for Mucoproduction at hours 0 - 4: mean ± E.S.
[2] = tested on: mucus of sound animals (rabbits); assay: Fluidizing activity - viscosity of mucus of sound animals (Contraves Rehomat microviscosimeter); type: in vivo, rabbit; conditions: 20 mg/kg i.v.
Description: (§1) The pharmacological activity was measured by studying the effect on the compound (CO/1177) on:
(§2) (b) viscosity of mucus of sound animals (rabbits) and/or of animals made bronchitic experimentally by using, for the viscosimeter measures, a Contraves Rehomat microviscosimeter at 15 automatic scanning speeds;

[3] = tested on: mucus of animals made bronchitic experimentally; assay: Fluidizing activity - viscosity of mucus of experimentally bronchitic animals (Contraves Rehomat microviscosimeter); type: in vivo, rabbit; conditions: 20 mg/kg i.v.
Description: as §1, §2

[4] = tested on: gastric mucin of the pig; assay: "in vitro" viscosity of gastric mucin of the pig (Contraves Rehomat microviscosimeter); conditions: conc. 2 %; for Viscosity of gastric mucin: 0.1 ml; for Viscosity of gastric mucin, Var. %: vs Mucin + H2O
Description: The pharmacological activity was measured by studying the effect on the compound (CO/1177) on: (c) "in vitro" viscosity of gastric mucin of the pig by using, for the viscometer measures, a Contraves Rehomat microviscosimeter at 15 automatic scanning speeds.

[5] = Acute toxicity, mouse; conditions: in vivo
Description: (§3) The acute and subacute toxicity tests were performed by using Swiss mice and Wistar rats of both sexes.

[6] = Acute toxicity, rat; conditions: in vivo
Description: as §3

[7] = Acute toxicity, rabbit; conditions: in vivo, iv
[8] = Oryctolagus cuniculus, iv, 10 mg/kg i.v., 0-4 h vs -4-0 h, read-out: Mucoproduction Var. %
[9] = Oryctolagus cuniculus, po, 400 mg/kg os, 0-4 h vs -4-0 h, read-out: Mucoproduction Var. %
[10] = Oryctolagus cuniculus, po, 600 mg/kg os, 0-4 h vs -4-0 h, read-out: Mucoproduction Var. %
[11] = Oryctolagus cuniculus, iv, 5 mg/kg i.v., 0-4 h vs -4-0 h, read-out: Mucoproduction Var. %

## CC(S)C(=O)NCC(=O)O (racemic) [Mercaptopropionylglycine]
[1]; 10 mg/kg i.v.
  Mucoproduction at hours 0 - 4: 32.121 ± 1.013 mg/h
[1]; 20 mg/kg i.v.
  Mucoproduction at hours 0 - 4: 36.630 ± 1.565 mg/h
[1]; 400 mg/kg os
  Mucoproduction at hours 0 - 4: 32.053 ± 1.292 mg/h
[1]; 600 mg/kg os
  Mucoproduction at hours 0 - 4: 34.432 ± 1.813 mg/h
[1]; [8]
  change in vivo at 10 mg/kg: 33.8%
[1]; Oryctolagus cuniculus, iv, 20 mg/kg i.v., 0-4 h vs -4-0 h, read-out: Mucoproduction Var. %
  change in vivo at 20 mg/kg: 43%
[1]; [9]
  change in vivo at 400 mg/kg: 45%
[1]; [10]
  change in vivo at 600 mg/kg: 49.9%

## CN(Cc1cc(Br)cc(Br)c1N)C1CCCCC1 [Bromexine]
[1]; 400 mg/kg os
  Mucoproduction at hours 0 - 4: 27.414 ± 1.071 mg/h
[1]; 600 mg/kg os
  Mucoproduction at hours 0 - 4: 34.440 ± 1.446 mg/h
[1]; [9]
  change in vivo at 400 mg/kg: 31.3%
[1]; [10]
  change in vivo at 600 mg/kg: 40.6%

## O=C(O)c1ccccc1C(=O)N1CCSC1 [CO/1177, 2-(1,3-thiazolidin-3-yl)-carbonyl-benzoic acid (Na salt)]
[1]; 2.5 mg/kg i.v.
  Mucoproduction at hours 0 - 4: 52.760 ± 20.29 mg/h
[1]; 5 mg/kg i.v.
  Mucoproduction at hours 0 - 4: 37.650 ± 0.231 mg/h
[1]; 10 mg/kg i.v.
  Mucoproduction at hours 0 - 4: 49.250 ± 6.020 mg/h
[1]; 100 mg/kg os
  Mucoproduction at hours 0 - 4: 34.320 ± 5.850 mg/h
[1]; 200 mg/kg os
  Mucoproduction at hours 0 - 4: 86.250 ± 10.80 mg/h
[1]; 400 mg/kg os
  Mucoproduction at hours 0 - 4: 30.730 ± 7.630 mg/h
[1]; Oryctolagus cuniculus, iv, 2.5 mg/kg i.v., 0-4 h vs -4-0 h, read-out: Mucoproduction Var. %
  change in vivo at 2.5 mg/kg: 32%
[1]; [11]
  change in vivo at 5 mg/kg: 34.6%
[1]; [8]
  change in vivo at 10 mg/kg: 71%
[1]; Oryctolagus cuniculus, po, 100 mg/kg os, 0-4 h vs -4-0 h, read-out: Mucoproduction Var. %
  change in vivo at 100 mg/kg: 16.3%
[1]; Oryctolagus cuniculus, po, 200 mg/kg os, 0-4 h vs -4-0 h, read-out: Mucoproduction Var. %
  change in vivo at 200 mg/kg: 51.2%
[1]; [9]
  change in vivo at 400 mg/kg: 97.6%
[2]; speed 17.4 g/min
  Viscosity Var. %: -100%
  Viscosity, time 0-24: 0 cps
[2]; speed 25 g/min
  Viscosity Var. %: -81.7%
  Viscosity, time 0-24: 0.88 cps
[2]; speed 33.6 g/min
  Viscosity Var. %: -78.6%
  Viscosity, time 0-24: 1.97 cps
[2]; speed 44.3 g/min
  Viscosity Var. %: -71.5%
  Viscosity, time 0-24: 2.00 cps
[2]; speed 56.1 g/min
  Viscosity Var. %: -67.6%
  Viscosity, time 0-24: 2.43 cps
[2]; speed 77.9 g/min
  Viscosity Var. %: -53.6%
  Viscosity, time 0-24: 2.55 cps
[2]; speed 113.2 g/min
  Viscosity Var. %: -37.7%
  Viscosity, time 0-24: 2.25 cps
[2]; speed 152 g/min
  Viscosity Var. %: -36.3%
  Viscosity, time 0-24: 2.18 cps
[2]; speed 200 g/min
  Viscosity Var. %: -41.4%
  Viscosity, time 0-24: 2.04 cps
[2]; speed 266.8 g/min
  Viscosity Var. %: -39.2%
  Viscosity, time 0-24: 1.94 cps
[2]; speed 352 g/min
  Viscosity Var. %: -37.4%
  Viscosity, time 0-24: 1.91 cps
[3]; speed 17.4 g/min
  Viscosity, time 0-24: 50.30 cps
[3]; speed 25 g/min
  Viscosity Var. %: -58.4%
  Viscosity, time 0-24: 41.5 cps
[3]; speed 33.6 g/min
  Viscosity Var. %: -60%
  Viscosity, time 0-24: 28.70 cps
[3]; speed 44.3 g/min
  Viscosity Var. %: -56.6%
  Viscosity, time 0-24: 22.4 cps
[3]; speed 56.1 g/min
  Viscosity Var. %: -51.9%
  Viscosity, time 0-24: 14.50 cps
[3]; speed 77.9 g/min
  Viscosity Var. %: -60.9%
  Viscosity, time 0-24: 10.7 cps
[3]; speed 113.2 g/min
  Viscosity Var. %: -63.8%
  Viscosity, time 0-24: 6.7 cps
[3]; speed 152 g/min
  Viscosity Var. %: -68.1%
  Viscosity, time 0-24: 5.2 cps
[3]; speed 200 g/min
  Viscosity Var. %: -66.7%
  Viscosity, time 0-24: 4.0 cps
[3]; speed 266.8 g/min
  Viscosity Var. %: -71.8%
  Viscosity, time 0-24: 2.4 cps
[3]; speed 352 g/min
  Viscosity Var. %: -68.9%
  Viscosity, time 0-24: 1.9 cps
[4]; speed 17.4 g/min
  Viscosity of gastric mucin: 24.87 cps
  Viscosity of gastric mucin, Var. %: -10.9%
[4]; speed 25 g/min
  Viscosity of gastric mucin: 22.39 cps
  Viscosity of gastric mucin, Var. %: -19.1%
[4]; speed 33.6 g/min
  Viscosity of gastric mucin: 24.05 cps
  Viscosity of gastric mucin, Var. %: -10.1%
[4]; speed 44.3 g/min
  Viscosity of gastric mucin: 22.92 cps
  Viscosity of gastric mucin, Var. %: -14.1%
[4]; speed 56.1 g/min
  Viscosity of gastric mucin: 23.14 cps
  Viscosity of gastric mucin, Var. %: -11%
[4]; speed 77.9 g/min
  Viscosity of gastric mucin: 20.91 cps
  Viscosity of gastric mucin, Var. %: -15.4%
[4]; speed 113.2 g/min
  Viscosity of gastric mucin: 20.88 cps
  Viscosity of gastric mucin, Var. %: -8.1%
[4]; speed 152 g/min
  Viscosity of gastric mucin: 18.81 cps
  Viscosity of gastric mucin, Var. %: -9.1%
[4]; speed 200 g/min
  Viscosity of gastric mucin: 17.24 cps
  Viscosity of gastric mucin, Var. %: -8.1%
[4]; speed 266.8 g/min
  Viscosity of gastric mucin: 15.48 cps
  Viscosity of gastric mucin, Var. %: -10%
[4]; speed 352 g/min
  Viscosity of gastric mucin: 14.29 cps
  Viscosity of gastric mucin, Var. %: -7.1%
[5]; iv
  LD50: 3000 mg/kg
[5]; po
  LD50: > 5000 mg/kg
[6]; iv
  LD50: > 5000 mg/kg
[6]; po
  LD50: > 5000 mg/kg
[7]
  LD50: ~3500 mg/kg

## CC1=CCC(CC2SCCN2C(=O)c2ccccc2C(=O)[O-])C1(C)C.[Na+] (stereo not drawn) [CO/1178, 2-[(2-{2',2',3'-trimethyl-cyclopenten-3'yl}-methyl)-1,3-thiazolidin-3-yl]-carbonyl-benzoic acid, Na salt]
[1]; 10 mg/kg i.v., 0-4 h vs -4-0 h
  Mucoproduction Var. %: +19.9%
[1]; 10 mg/kg i.v.
  Mucoproduction at hours 0 - 4: 26.890 ± 6.210 mg/h

## O=C(O)c1ccccc1C(=O)N1CCSC1c1ccccc1 (stereo not drawn) [CO/1220, 2-[(2-phenyl)-1,3-thiazolidin-3-yl]-carbonyl-benzoic acid (Na salt)]
[1]; 10 mg/kg i.v.
  Mucoproduction at hours 0 - 4: 31.300 ± 2.240 mg/h
[1]; [8]
  change in vivo at 10 mg/kg: 43.5%

## CCCC1SCCN1C(=O)c1ccccc1C(=O)O (stereo not drawn) [CO/1226, 2-[(2-propyl)-1,3-thiazolidin-3-yl]-carbonyl-benzoic acid (Na salt)]
[1]; 10 mg/kg i.v.
  Mucoproduction at hours 0 - 4: 29.730 ± 4.510 mg/h
[1]; [8]
  change in vivo at 10 mg/kg: 26.9%

## O=C(O)c1cccnc1C(=O)N1CCSC1 [CO/1242, 2-(1,3-thiazolidin-3-yl)-carbonyl-3-pyridine-carboxylic acid (Na salt)]
[1]; 10 mg/kg i.v.
  Mucoproduction at hours 0 - 4: 31.030 ± 2.840 mg/h
[1]; [8]
  change in vivo at 10 mg/kg: 39%

## CC(=O)N[C@@H](CS)C(=O)O [N--Acetylcysteine, reference compound]
[1]; 5 mg/kg i.v.
  Mucoproduction at hours 0 - 4: 29.058 ± 0.946 mg/h
[1]; 10 mg/kg i.v.
  Mucoproduction at hours 0 - 4: 30.988 ± 1.078 mg/h
[1]; 400 mg/kg os
  Mucoproduction at hours 0 - 4: 22.713 ± 0.947 mg/h
[1]; 600 mg/kg os
  Mucoproduction at hours 0 - 4: 32.512 ± 1.365 mg/h
[1]; [11]
  change in vivo at 5 mg/kg: 29.2%
[1]; [8]
  change in vivo at 10 mg/kg: 49.8%
[1]; [9]
  change in vivo at 400 mg/kg: 4.7%
[1]; [10]
  change in vivo at 600 mg/kg: 39.4%
[4]; speed 17.4 g/min
  Viscosity of gastric mucin: 25.64 cps
  Viscosity of gastric mucin, Var. %: -11.9%
[4]; speed 25 g/min
  Viscosity of gastric mucin: 25.20 cps
  Viscosity of gastric mucin, Var. %: -8.1%
[4]; speed 33.6 g/min
  Viscosity of gastric mucin: 24.30 cps
[4]; speed 44.3 g/min
  Viscosity of gastric mucin: 23.32 cps
  Viscosity of gastric mucin, Var. %: -12.4%
[4]; speed 56.1 g/min
  Viscosity of gastric mucin: 23.77 cps
  Viscosity of gastric mucin, Var. %: -8.1%
[4]; speed 77.9 g/min
  Viscosity of gastric mucin: 20.30 cps
  Viscosity of gastric mucin, Var. %: -11.1%
[4]; speed 113.2 g/min
  Viscosity of gastric mucin: 19.41 cps
  Viscosity of gastric mucin, Var. %: -10.1%
[4]; speed 152 g/min
  Viscosity of gastric mucin: 17.94 cps
  Viscosity of gastric mucin, Var. %: -8%
[4]; speed 200 g/min
  Viscosity of gastric mucin: 16.19 cps
  Viscosity of gastric mucin, Var. %: -11.1%
[4]; speed 266.8 g/min
  Viscosity of gastric mucin: 14.52 cps
  Viscosity of gastric mucin, Var. %: -12.1%
[4]; speed 352 g/min
  Viscosity of gastric mucin: 13.70 cps
  Viscosity of gastric mucin, Var. %: -8.1%

## N[C@@H](CSCC(=O)O)C(=O)O [S--Carboxymethylcysteine]
[1]; 400 mg/kg os
  Mucoproduction at hours 0 - 4: 35.339 ± 1.376 mg/h
[1]; 600 mg/kg os
  Mucoproduction at hours 0 - 4: 32.120 ± 1.630 mg/h
[1]; [9]
  change in vivo at 400 mg/kg: 31.2%
[1]; [10]
  change in vivo at 600 mg/kg: 34.2%
